In ChEMBL document CHEMBL6134798, “Classifying covalent protein binders by their targeted binding site” (Bioorg Med Chem Lett, 2025):

How the values were obtained:
[1] = target: Epidermal growth factor receptor (Homo sapiens, UniProt P00533); assay: Inhibition of EGFR (unknown origin)
K562 = assay: Growth inhibition of human K562 cells; type: functional
Secernin-3 = target: T1, Secernin-3 (Homo sapiens, UniProt Q0VDG4); assay: Inhibition of full length human SCRN3 transfected in HEK293T cells; type: cell-based
T1 sequence (Q0VDG4 whole entry): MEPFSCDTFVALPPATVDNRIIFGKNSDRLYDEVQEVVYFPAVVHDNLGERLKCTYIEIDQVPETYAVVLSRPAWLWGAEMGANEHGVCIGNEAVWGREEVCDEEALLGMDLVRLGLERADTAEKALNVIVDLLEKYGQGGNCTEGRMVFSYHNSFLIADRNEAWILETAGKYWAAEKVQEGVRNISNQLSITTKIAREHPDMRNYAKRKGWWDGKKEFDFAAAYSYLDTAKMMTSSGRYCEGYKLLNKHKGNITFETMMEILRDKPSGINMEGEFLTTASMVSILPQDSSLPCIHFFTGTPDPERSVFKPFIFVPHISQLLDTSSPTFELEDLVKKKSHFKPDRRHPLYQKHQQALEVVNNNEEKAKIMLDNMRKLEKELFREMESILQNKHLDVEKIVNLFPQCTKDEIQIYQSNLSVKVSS

Epidermal growth factor receptor, sequence (P00533 whole entry): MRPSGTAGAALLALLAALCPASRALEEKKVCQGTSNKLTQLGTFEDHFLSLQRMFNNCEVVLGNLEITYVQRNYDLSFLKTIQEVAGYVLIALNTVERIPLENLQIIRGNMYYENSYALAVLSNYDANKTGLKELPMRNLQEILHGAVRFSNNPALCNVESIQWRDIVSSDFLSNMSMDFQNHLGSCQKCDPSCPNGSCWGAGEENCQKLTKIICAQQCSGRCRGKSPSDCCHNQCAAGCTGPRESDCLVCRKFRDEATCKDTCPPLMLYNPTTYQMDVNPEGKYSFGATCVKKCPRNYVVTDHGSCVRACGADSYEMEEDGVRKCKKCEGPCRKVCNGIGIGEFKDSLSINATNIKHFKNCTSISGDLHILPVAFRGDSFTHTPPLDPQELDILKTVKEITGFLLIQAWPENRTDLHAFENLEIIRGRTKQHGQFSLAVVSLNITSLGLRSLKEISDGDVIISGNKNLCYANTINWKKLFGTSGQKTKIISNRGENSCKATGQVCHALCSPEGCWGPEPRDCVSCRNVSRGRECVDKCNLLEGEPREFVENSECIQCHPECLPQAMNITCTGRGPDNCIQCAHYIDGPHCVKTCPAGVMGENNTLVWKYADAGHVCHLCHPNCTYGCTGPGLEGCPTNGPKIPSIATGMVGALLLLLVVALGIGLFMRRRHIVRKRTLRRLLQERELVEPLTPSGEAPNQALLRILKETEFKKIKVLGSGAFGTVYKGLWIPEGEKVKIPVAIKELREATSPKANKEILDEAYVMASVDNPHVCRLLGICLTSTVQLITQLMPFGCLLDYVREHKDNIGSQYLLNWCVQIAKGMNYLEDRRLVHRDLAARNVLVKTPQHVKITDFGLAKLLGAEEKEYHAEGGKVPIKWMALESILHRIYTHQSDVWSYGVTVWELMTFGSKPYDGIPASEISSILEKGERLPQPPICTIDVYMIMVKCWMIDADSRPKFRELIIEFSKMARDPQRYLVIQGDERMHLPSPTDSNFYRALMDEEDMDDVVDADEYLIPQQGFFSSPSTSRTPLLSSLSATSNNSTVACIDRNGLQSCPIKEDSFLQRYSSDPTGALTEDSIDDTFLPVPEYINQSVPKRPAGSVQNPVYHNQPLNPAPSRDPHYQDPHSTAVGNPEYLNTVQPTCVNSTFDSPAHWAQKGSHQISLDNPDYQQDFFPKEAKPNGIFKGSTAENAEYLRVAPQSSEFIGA

`C=CC(=O)N1CCN(c2ncnc3c(F)c(-c4c(O)cccc4F)c(Cl)cc23)CC1` gave an IC50 [1] of 120 nM.
`COc1cc(O)c(C=O)cc1-c1c[nH]c2ncc(-c3cncc(C(=O)N(C)C)c3)cc12` was tested, and the GI50 (K562) was 55.6 nM.
With `NNc1ccc2ccccc2c1` the IC50 (Secernin-3) was 200 nM.
